# Measurements from the NIST ThermoML archive (doi:10.1021/je501162f).
# ± gives the expanded uncertainty stated by the source.
# Columns and labels:
# [1] = molar heat capacity at constant pressure; conditions: 101.33 kPa, Liquid, Small sample (50 mg) DSC
# [2] = for viscosity / mass density: 101.33 kPa; for viscosity / mass density / surface tension liquid-gas: Liquid; for mass density: Vibrating tube method; for surface tension liquid-gas: Pendant drop shape; for Glass transition temperature: DTA
SMILES,molar heat capacity at constant pressure ([1]; 293.15 K),molar heat capacity at constant pressure ([1]; 303.15 K),molar heat capacity at constant pressure ([1]; 313.15 K),molar heat capacity at constant pressure ([1]; 323.15 K),molar heat capacity at constant pressure ([1]; 333.15 K),molar heat capacity at constant pressure ([1]; 343.15 K),molar heat capacity at constant pressure ([1]; 353.15 K),surface tension liquid-gas ([2]; 293.15 K),viscosity ([2]; 303.15 K),mass density ([2]; 303.15 K),surface tension liquid-gas ([2]; 303.15 K),viscosity ([2]; 313.15 K),mass density ([2]; 313.15 K),surface tension liquid-gas ([2]; 313.15 K),viscosity ([2]; 323.15 K),mass density ([2]; 323.15 K),surface tension liquid-gas ([2]; 323.15 K),viscosity ([2]; 333.15 K),mass density ([2]; 333.15 K),surface tension liquid-gas ([2]; 333.15 K),other results
CCCCCCCCn1cc[n+](C)c1.O=C([O-])[C@@H]1CCCN1 [1-methyl-3-octyl-1H-imidazol-3-ium L-prolinate],561.68 ± 57 J/K/mol,569.53 ± 58 J/K/mol,578.89 ± 58 J/K/mol,590.88 ± 60 J/K/mol,603.42 ± 61 J/K/mol,615.85 ± 62 J/K/mol,627.51 ± 63 J/K/mol,29.28 ± 0.64 mN/m,839.9 ± 97 mPa·s,1058.2 ± 2.2 kg/m3,28.88 ± 0.64 mN/m,401.2 ± 35 mPa·s,1051.8 ± 2.2 kg/m3,28.46 ± 0.64 mN/m,211 ± 13 mPa·s,1045.5 ± 2.2 kg/m3,28.17 ± 0.63 mN/m,120.3 ± 5 mPa·s,1039.1 ± 2.2 kg/m3,27.76 ± 0.63 mN/m,viscosity ([2]; 293.15 K): 1969.8 ± 290 mPa·s; mass density ([2]; 293.15 K): 1064.5 ± 2.2 kg/m3; viscosity ([2]; 343.15 K): 73.2 ± 2.1 mPa·s; mass density ([2]; 343.15 K): 1032.8 ± 2.2 kg/m3; surface tension liquid-gas ([2]; 343.15 K): 27.62 ± 0.63 mN/m; viscosity ([2]; 353.15 K): 47.2 ± 1.2 mPa·s; mass density ([2]; 353.15 K): 1026.4 ± 2.2 kg/m3; surface tension liquid-gas ([2]; 353.15 K): 27.14 ± 0.63 mN/m; viscosity ([2]; 363.15 K): 31.9 ± 0.8 mPa·s; mass density ([2]; 363.15 K): 1020.1 ± 2.2 kg/m3; viscosity ([2]; 373.15 K): 22.4 ± 0.6 mPa·s; mass density ([2]; 373.15 K): 1013.9 ± 2.2 kg/m3; Glass transition temperature [2]: -62 ± 1 °C
CCCCCCCCn1cc[n+](C)c1.NCC(=O)[O-] [1-methyl-3-octylimidazolium glycinate],504.06 ± 51 J/K/mol,511.67 ± 52 J/K/mol,518.04 ± 52 J/K/mol,526.8 ± 53 J/K/mol,536.66 ± 54 J/K/mol,546.99 ± 55 J/K/mol,555.85 ± 56 J/K/mol,35.37 ± 0.69 mN/m,248.2 ± 17 mPa·s,1035.3 ± 2.2 kg/m3,33.98 ± 0.68 mN/m,137.9 ± 6.3 mPa·s,1029.1 ± 2.2 kg/m3,32.81 ± 0.67 mN/m,82.4 ± 2.5 mPa·s,1023 ± 2.2 kg/m3,31.35 ± 0.66 mN/m,52.3 ± 1.3 mPa·s,1016.8 ± 2.2 kg/m3,30.07 ± 0.65 mN/m,viscosity ([2]; 293.15 K): 486.4 ± 45 mPa·s; mass density ([2]; 293.15 K): 1041.7 ± 2.2 kg/m3; viscosity ([2]; 343.15 K): 34.9 ± 0.9 mPa·s; mass density ([2]; 343.15 K): 1010.6 ± 2.1 kg/m3; surface tension liquid-gas ([2]; 343.15 K): 28.75 ± 0.64 mN/m; viscosity ([2]; 353.15 K): 24.4 ± 0.6 mPa·s; mass density ([2]; 353.15 K): 1004.4 ± 2.1 kg/m3; surface tension liquid-gas ([2]; 353.15 K): 27.42 ± 0.63 mN/m; viscosity ([2]; 363.15 K): 17.7 ± 0.4 mPa·s; mass density ([2]; 363.15 K): 998.6 ± 2.1 kg/m3; viscosity ([2]; 373.15 K): 13.3 ± 0.3 mPa·s; mass density ([2]; 373.15 K): 992.8 ± 2.1 kg/m3; Glass transition temperature [2]: -69 ± 1 °C
CCCCCCCC[n+]1ccn(C)c1.C[C@H](N)C(=O)[O-] [1-methyl-3-octylimidazolium L-alaninate],592.06 ± 60 J/K/mol,600.95 ± 61 J/K/mol,609.08 ± 62 J/K/mol,620.49 ± 63 J/K/mol,632.82 ± 64 J/K/mol,645.14 ± 65 J/K/mol,657.43 ± 66 J/K/mol,28.24 ± 0.63 mN/m,347.3 ± 28 mPa·s,982.1 ± 2.1 kg/m3,27.9 ± 0.63 mN/m,184.6 ± 10 mPa·s,978.6 ± 2.1 kg/m3,27.23 ± 0.63 mN/m,106.9 ± 4 mPa·s,975.8 ± 2.1 kg/m3,26.61 ± 0.62 mN/m,65.7 ± 1.7 mPa·s,972.9 ± 2.1 kg/m3,26.11 ± 0.62 mN/m,viscosity ([2]; 293.15 K): 705.1 ± 76 mPa·s; mass density ([2]; 293.15 K): 985.3 ± 2.1 kg/m3; viscosity ([2]; 343.15 K): 42.9 ± 1.1 mPa·s; mass density ([2]; 343.15 K): 969.3 ± 2.1 kg/m3; surface tension liquid-gas ([2]; 343.15 K): 25.55 ± 0.62 mN/m; viscosity ([2]; 353.15 K): 29.1 ± 0.7 mPa·s; mass density ([2]; 353.15 K): 966.3 ± 2.1 kg/m3; surface tension liquid-gas ([2]; 353.15 K): 24.99 ± 0.61 mN/m; viscosity ([2]; 363.15 K): 20.7 ± 0.5 mPa·s; mass density ([2]; 363.15 K): 962.6 ± 2.1 kg/m3; viscosity ([2]; 373.15 K): 15.2 ± 0.4 mPa·s; mass density ([2]; 373.15 K): 959.7 ± 2.1 kg/m3; Glass transition temperature [2]: -66 ± 1 °C
CCCCCCCC[n+]1ccn(C)c1.N[C@@H](CO)C(=O)[O-] [1-methyl-3-octyl-1H-imidazol-3-ium L-serinate],599.21 ± 61 J/K/mol,607.97 ± 61 J/K/mol,614.69 ± 62 J/K/mol,624.21 ± 63 J/K/mol,634.19 ± 64 J/K/mol,644.72 ± 65 J/K/mol,655.67 ± 66 J/K/mol,34.29 ± 0.68 mN/m,1178.7 ± 150 mPa·s,1069.3 ± 2.2 kg/m3,32.8 ± 0.67 mN/m,536.2 ± 52 mPa·s,1062.7 ± 2.2 kg/m3,32.2 ± 0.7 mN/m,271.2 ± 19 mPa·s,1056.1 ± 2.2 kg/m3,31.6 ± 0.7 mN/m,149.6 ± 7.2 mPa·s,1049.7 ± 2.2 kg/m3,31 ± 0.7 mN/m,viscosity ([2]; 293.15 K): 2853 ± 470 mPa·s; mass density ([2]; 293.15 K): 1075.6 ± 2.2 kg/m3; viscosity ([2]; 343.15 K): 88.9 ± 2.9 mPa·s; mass density ([2]; 343.15 K): 1043.3 ± 2.2 kg/m3; surface tension liquid-gas ([2]; 343.15 K): 30.01 ± 0.65 mN/m; viscosity ([2]; 353.15 K): 56.2 ± 1.4 mPa·s; mass density ([2]; 353.15 K): 1036.9 ± 2.2 kg/m3; surface tension liquid-gas ([2]; 353.15 K): 29.23 ± 0.64 mN/m; viscosity ([2]; 363.15 K): 37.5 ± 1 mPa·s; mass density ([2]; 363.15 K): 1030.5 ± 2.2 kg/m3; viscosity ([2]; 373.15 K): 26.2 ± 0.7 mPa·s; mass density ([2]; 373.15 K): 1024.2 ± 2.2 kg/m3; Glass transition temperature [2]: -54 ± 1 °C
CCCCCCCC[n+]1ccn(C)c1.NC(=O)C[C@H](N)C(=O)[O-] [1-methyl-3-octylimidazolium L-asparaginate],654 ± 66 J/K/mol,662.93 ± 67 J/K/mol,670.78 ± 68 J/K/mol,682.99 ± 69 J/K/mol,694.16 ± 70 J/K/mol,705.81 ± 71 J/K/mol,717.01 ± 72 J/K/mol,34.32 ± 0.68 mN/m,3519.9 ± 610 mPa·s,1061.7 ± 2.2 kg/m3,33.7 ± 0.68 mN/m,1436.8 ± 200 mPa·s,1057.2 ± 2.2 kg/m3,32.96 ± 0.67 mN/m,659.1 ± 70 mPa·s,1052.2 ± 2.2 kg/m3,31.99 ± 0.66 mN/m,333.3 ± 26 mPa·s,1048.6 ± 2.2 kg/m3,31.73 ± 0.66 mN/m,viscosity ([2]; 343.15 K): 182.6 ± 10 mPa·s; mass density ([2]; 343.15 K): 1044.1 ± 2.2 kg/m3; surface tension liquid-gas ([2]; 343.15 K): 30.88 ± 0.66 mN/m; viscosity ([2]; 353.15 K): 107.1 ± 4 mPa·s; mass density ([2]; 353.15 K): 1039 ± 2.2 kg/m3; surface tension liquid-gas ([2]; 353.15 K): 30.19 ± 0.65 mN/m; viscosity ([2]; 363.15 K): 66.6 ± 1.8 mPa·s; mass density ([2]; 363.15 K): 1034.4 ± 2.2 kg/m3; viscosity ([2]; 373.15 K): 43.5 ± 1.1 mPa·s; mass density ([2]; 373.15 K): 1030.1 ± 2.2 kg/m3; Glass transition temperature [2]: -44 ± 1 °C
